Target: BTK (Homo sapiens (Human), UniProt Q06187)
Test: biochemical

Sequence of BTK (Q06187 whole entry, looked up, species assumed): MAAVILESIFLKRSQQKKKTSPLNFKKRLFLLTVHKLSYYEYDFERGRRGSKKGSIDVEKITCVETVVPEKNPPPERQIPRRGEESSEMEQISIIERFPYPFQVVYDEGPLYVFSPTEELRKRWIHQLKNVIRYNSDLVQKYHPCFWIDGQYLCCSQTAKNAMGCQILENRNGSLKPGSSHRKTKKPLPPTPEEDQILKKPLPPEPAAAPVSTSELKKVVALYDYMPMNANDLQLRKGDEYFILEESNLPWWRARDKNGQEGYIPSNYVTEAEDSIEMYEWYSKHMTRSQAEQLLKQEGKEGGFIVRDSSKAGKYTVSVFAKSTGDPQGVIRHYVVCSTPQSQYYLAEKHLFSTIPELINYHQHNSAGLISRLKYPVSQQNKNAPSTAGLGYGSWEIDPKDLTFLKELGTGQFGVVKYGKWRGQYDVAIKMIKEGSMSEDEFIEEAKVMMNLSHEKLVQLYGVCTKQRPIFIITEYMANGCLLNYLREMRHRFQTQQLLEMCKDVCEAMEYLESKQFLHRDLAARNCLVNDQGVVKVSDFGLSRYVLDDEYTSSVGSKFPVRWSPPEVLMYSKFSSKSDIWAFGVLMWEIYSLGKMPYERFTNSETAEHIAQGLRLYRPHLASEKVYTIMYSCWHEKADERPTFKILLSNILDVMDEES

Row | Structure (SMILES) | IC50 [nM]
1 | CC#CC(=O)N1CCC[C@@H](c2nc(-c3ccc(Oc4cccc(OC)c4F)cc3)c3cncc(C)n23)C1 [Example 71, (R)-1-(3-(1-(4-(2-fluoro-3-methoxyphenoxy)phenyl)-5-methylimidazo[1,5-a]pyrazin-3-yl)piperidin-1-yl)but-2-yn-1-one] | 100 to 1000
2 | COc1cccc(Oc2ccc(-c3nc([C@@H]4CCCN(C(=O)/C(C#N)=C/C(C)(C)C)C4)n4ccncc34)cc2)c1F [Example 2, (R,E)-2-(3-(1-(4-(2-Fluoro-3-methoxyphenoxy)phenyl)imidazo[1,5-a]pyrazin-3-yl)piperidine-1-carbonyl)-4,4-dimethylpent-2-enenitrile] | 10 to 100
3 | CC#CC(=O)N1CC[C@@H](c2nc(-c3ccc(Oc4cccc(OC)c4F)cc3)c3c(CO)nccn23)C1 [Example 119, (R)-1-(3-(1-(4-(2-fluoro-3-methoxyphenoxy)phenyl)-8-(hydroxymethyl)imidazo[1,5-a]pyrazin-3-yl)pyrrolidin-1-yl)but-2-yn-1-one] | 10 to 100
4 | CC#CC(=O)N1CCC[C@H]1c1nc(-c2ccc(OCc3cccc(F)c3)cc2)c2cnccn12 [Example 138, (S)-1-(2-(1-(4-((3-fluorobenzyl)oxy)phenyl)imidazo[1,5-a]pyrazin-3-yl)pyrrolidin-1-yl)but-2-yn-1-one] | 1000 to 10000
5 | CC#CC(=O)N1CCC[C@@H](c2nc(-c3ccc(Oc4cccc(OC)c4)cc3)c3cnccn23)C1 [Example 52, (R)-1-(3-(1-(4-(3-methoxyphenoxy)phenyl)imidazo[1,5-a]pyrazin-3-yl)piperidin-1-yl)but-2-yn-1-one] | 100 to 1000
6 | CC#CC(=O)N1CCCC[C@H]1c1nc(-c2ccc(COc3cccc(F)c3F)cc2)c2cnccn12 [Example 159, (S)-1-(2-(1-(4-((2,3-difluorophenoxy)methyl)phenyl)imidazo[1,5-a]pyrazin-3-yl)piperidin-1-yl)but-2-yn-1-one] | 1000 to 10000
7 | CC#CC(=O)N1CC[C@@H](c2nc(-c3ccc(Oc4cccc(OC)c4F)cc3)c3c(C)ncc(C)n23)C1 [Example 75, (R)-1-(3-(1-(4-(2-fluoro-3-methoxyphenoxy)phenyl)-5,8-dimethylimidazo[1,5-a]pyrazin-3-yl)pyrrolidin-1-yl)but-2-yn-1-one] | 10 to 100
8 | CC#CC(=O)N1CCC[C@@H](c2nc(-c3ccc(C(=O)Nc4ccccn4)cc3)c3cnccn23)C1 [Example 167, (R)-4-(3-(1-(but-2-ynoyl)piperidin-3-yl)imidazo [1,5-a]pyrazin-1-yl)-N-(pyridin-2-yl)benzamide] | 1000 to 10000
9 | CC#CC(=O)N1CCCC[C@H]1c1nc(-c2ccc(Oc3cccc(Cl)c3F)cc2)c2cnccn12 [Example 47, (S)-1-(2-(1-(4-(3-chloro-2-fluorophenoxy)phenyl)imidazo[1,5-a]pyrazin-3-yl)piperidin-1-yl)but-2-yn-1-one] | 100 to 1000
10 | CC#CC(=O)N1CC[C@@H](c2nc(-c3ccc(Oc4cccc(OC)c4F)cc3)c3cncc(OC(C)C)n23)C1 [Example 115, (R)-1-(3-(1-(4-(2-fluoro-3-methoxyphenoxy)phenyl)-5-isopropoxyimidazo[1,5-a]pyrazin-3-yl)pyrrolidin-1-yl)but-2-yn-1-one] | 100 to 1000
11 | CC#CC(=O)N1CCCC[C@H]1c1nc(-c2ccc(Oc3cccc(OC)c3F)cc2)c2cnccn12 [Example 25, (S)-1-(2-(1-(4-(2-fluoro-3-methoxyphenoxy)phenyl)imidazo[1,5-a]pyrazin-3-yl)piperidin-1-yl)but-2-yn-1-one] | 10 to 100
12 | CC#CC(=O)N1CCC[C@H]1c1nc(-c2ccc(COc3cccc(F)c3)cc2)c2cnccn12 [Example 147, (S)-1-(2-(1-(4-((3-fluorophenoxy)methyl)phenyl)imidazo[1,5-a]pyrazin-3-yl)pyrrolidin-1-yl)but-2-yn-1-one] | 1000 to 10000
13 | CC#CC(=O)N1CCC[C@H]1c1nc(-c2ccc(Oc3ccccc3)cc2Cl)c2cnccn12 [Example 14, (S)-1-(2-(1-(2-chloro-4-phenoxyphenyl)imidazo[1,5-a]pyrazin-3-yl)pyrrolidin-1-yl)but-2-yn-1-one] | 1000 to 10000
14 | CC#CC(=O)N1CCC[C@H]1c1nc(-c2ccc(C(=O)Nc3cccc(OC)c3F)cc2)c2cnccn12 [Example 164, (S)-4-(3-(1-(But-2-ynoyl)pyrrolidin-2-yl)imidazo[1,5-a]pyrazin-1-yl)-N-(2-fluoro-3-methoxyphenyl)benzamide] | 1000 to 10000
15 | CC#CC(=O)N1CC[C@@H](c2nc(-c3ccc(C(=O)Nc4ccccn4)cc3)c3c(C)ncc(C)n23)C1 [Example 183, (R)-4-(3-(1-(but-2-ynoyl)pyrrolidin-3-yl)-5,8-dimethylimidazo[1,5-a]pyrazin-1-yl)-N-(pyridin-2-yl)benzamide] | 100 to 1000
16 | C=CC(=O)N1CCC[C@H]1c1nc(-c2ccc(COc3ccccc3)cc2)c2cnccn12 [Example 143, (S)-1-(2-(1-(4-(phenoxymethyl)phenyl)imidazo[1,5-a]pyrazin-3-yl)pyrrolidin-1-yl)prop-2-en-1-one] | 10 to 100
17 | CC#CC(=O)N1CC[C@@H](c2nc(-c3ccc(C(=O)Nc4ccccn4)cc3)c3c(C)ncc(OCC)n23)C1 [Example 205, (R)-4-(3-(1-(but-2-ynoyl)pyrrolidin-3-yl)-5-ethoxy-8-methylimidazo[1,5-a]pyrazin-1-yl)-N-(pyridin-2-yl)benzamide] | 10 to 100

Row | Structure (SMILES) | IC50 [nM]
18 | C=CC(=O)N1CCC[C@H]1c1nc(-c2ccc(COc3cccc(OC)c3F)cc2)c2cnccn12 [Example 161, (S)-1-(2-(1-(4-((2-fluoro-3-methoxyphenoxy)methyl)phenyl)imidazo[1,5-a]pyrazin-3-yl)pyrrolidin-1-yl)prop-2-en-1-one] | 10 to 100
19 | C=CC(=O)N1CCC[C@H]1c1nc(-c2ccc(OCc3cccc(Cl)c3)cc2)c2cnccn12 [Example 141, (S)-1-(2-(1-(4-((3-chlorobenzyl)oxy)phenyl)imidazo[1,5-a]pyrazin-3-yl)pyrrolidin-1-yl)prop-2-en-1-one] | 10 to 100
20 | C=CC(=O)N1CCC[C@@H](c2nc(-c3ccc(Oc4cccc(OC)c4F)cc3)c3cncc(C)n23)C1 [Example 70, (R)-1-(3-(1-(4-(2-fluoro-3-methoxyphenoxy)phenyl)-5-methylimidazo[1,5-a]pyrazin-3-yl)piperidin-1-yl)prop-2-en-1-one] | 10 to 100
21 | C=CC(=O)N1CCC[C@H]1c1nc(-c2ccc(Oc3cccc(F)c3)cc2)c2cnccn12 [Example 11, (S)-1-(2-(1-(4-(3-fluorophenoxy)phenyl)imidazo[1,5-a]pyrazin-3-yl)pyrrolidin-1-yl)prop-2-en-1-one] | 10 to 100
22 | C=CC(=O)N1CCC[C@H]1c1nc(-c2ccc(COc3ccccc3F)cc2)c2cnccn12 [Example 125, (S)-(2-(1-(4-((2-fluorophenoxy)methyl)phenyl)imidazo[1,5-a]pyrazin-3-yl)pyrrolidin-1-yl)prop-2-en-1-one] | 10 to 100
23 | CC#CC(=O)N1CCC[C@H]1c1nc(-c2ccc(C(=O)Nc3ccccn3)cc2)c2c(C)ncc(C)n12 [Example 175, (S)-4-(3-(1-(but-2-ynoyl)pyrrolidin-2-yl)-5,8-dimethylimidazo[1,5-a]pyrazin-1-yl)-N-(pyridin-2-yl)benzamide] | 100 to 1000
24 | CC#CC(=O)N1CC[C@@H](c2nc(-c3ccc(C(=O)Nc4cc(C(F)(F)F)ccn4)cc3F)c3cnccn23)C1 [Example 212, (R)-4-(3-(1-(but-2-ynoyl)pyrrolidin-3-yl)imidazo [1,5-a]pyrazin-1-yl)-3-fluoro-N-(4-(trifluoromethyl)pyridin-2-yl)benzamide] | 10 to 100
25 | CC#CC(=O)N1CCC[C@H]1c1nc(-c2ccc(COc3cccc(F)c3F)cc2)c2cnccn12 [Example 130, (S)-1-(2-(1-(4-((2,3-difluorophenoxy)methyl)phenyl)imidazo[1,5-a]pyrazin-3-yl)pyrrolidin-1-yl)but-2-yn-1-one] | 1000 to 10000
26 | C=CC(=O)N1CCC[C@H]1c1nc(-c2ccc(COc3cccc(F)c3)cc2)c2cnccn12 [Example 145, (S)-1-(2-(1-(4-((3-fluorophenoxy)methyl)phenyl)imidazo[1,5-a]pyrazin-3-yl)pyrrolidin-1-yl)prop-2-en-1-one] | 10 to 100
27 | CC#CC(=O)N1CCC[C@H]1c1nc(-c2ccc(Oc3cccc(F)c3)cc2)c2cnccn12 [Example 7, (S)-1-(2-(1-(4-(3-fluorophenoxy)phenyl)imidazo[1,5-a]pyrazin-3-yl)pyrrolidin-1-yl)but-2-yn-1-one] | 10 to 100
28 | CC#CC(=O)N1CCCC[C@H]1c1nc(-c2ccc(Oc3cccc(OC)c3F)cc2)c2cncc(C)n12 [Example 79, (S)-1-(2-(1-(4-(2-fluoro-3-methoxyphenoxy)phenyl)-5-methylimidazo[1,5-a]pyrazin-3-yl)piperidin-1-yl)but-2-yn-1-one] | 100 to 1000
29 | CC#CC(=O)N1CCC[C@@H](c2nc(-c3ccc(C(=O)Nc4ccccn4)cc3)c3cncc(C)n23)C1 [Example 179, (R)-4-(3-(1-(but-2-ynoyl)piperidin-3-yl)-5-methylimidazo[1,5-a]pyrazin-1-yl)-N-(pyridin-2-yl)benzamide] | 1000 to 10000
30 | CC#CC(=O)N1CCC[C@H]1c1nc(-c2ccc(OCc3cccc(F)c3F)cc2)c2cnccn12 [Example 127, (S)-1-(2-(1-(4-((2,3-difluorobenzyl)oxy)phenyl)imidazo[1,5-a]pyrazin-3-yl)pyrrolidin-1-yl)but-2-yn-1-one] | 1000 to 10000
31 | COc1cccc(Oc2ccc(-c3nc([C@@H]4CCC5CCC(=O)N5C4)n4ccncc34)cc2)c1F (stereo partly drawn) [Example 213, (6R)-6-(1-(4-(2-fluoro-3-methoxyphenoxy)phenyl)imidazo[1,5-a]pyrazin-3-yl)hexahydroindolizin-3(2H)-one] | 100 to 1000
32 | CC#CC(=O)N1CCCC[C@H]1c1nc(-c2ccc(COc3ccc(F)c(F)c3)cc2)c2c(C)nccn12 [Example 151, (S)-1-(2-(1-(4-((3,4-difluorophenoxy)methyl)phenyl)-8-methylimidazo[1,5-a]pyrazin-3-yl)piperidin-1-yl)but-2-yn-1-one] | 100 to 1000
33 | C=CC(=O)N1CCC[C@H]1c1nc(-c2ccc(C(=O)Nc3cccc(OC)c3F)cc2)c2cnccn12 [Example 165, (S)-4-(3-(1-acryloylpyrrolidin-2-yl)imidazo[1,5-a]pyrazin-1-yl)-N-(2-fluoro-3-methoxyphenyl)benzamide] | 100 to 1000
